{"source": "paper PMC7933320", "about": "“Cytochalasins from Xylaria sp. CFL5, an Endophytic Fungus of Cephalotaxus fortunei” (Natural Products and Bioprospecting, 2020)", "note": "pIC50: −log10 of the molar value.", "data": [{"test_system": "not listed separately", "assay": "Cytotoxicity by the CCK8 assay", "type": "cell-based", "settings": "human, AGS cells, read-out: inhibition rate, cytotoxicity against AGS cells", "procedure": "With adriamycin as the positive control, compounds 1, 4–9 were assessed for cytotoxicity against AGS, U251, and MDA-MB-231 by the CCK8 assay (Tables 3 and 4).", "units": {"inhibition at 5 µM": "%"}, "values": [{"compound": "C=C1[C@@H](C)[C@H]2[C@H](Cc3ccccc3)NC(=O)[C@]23[C@H](OC(C)=O)/C=C/[C@@](C)(O)C(=O)[C@@H](C)C/C=C/[C@H]3[C@@H]1O", "note": "[Compound 6, cytochalasin D]", "inhibition at 5 µM": 94}, {"compound": "CC(=O)OC1C=CC(C)(O)C(=O)C(C)CC=CC2C(O)C(C)=C(C)C3C(Cc4ccccc4)NC(=O)C123", "note": "(stereo not shown) [Compound 9, cytochalasin C]", "inhibition at 5 µM": 64}]}, {"target": "T1, LAG3/FGL1 (Homo sapiens, UniProt P18627)", "T1 sequence (P18627 23-450 limits assumed)": "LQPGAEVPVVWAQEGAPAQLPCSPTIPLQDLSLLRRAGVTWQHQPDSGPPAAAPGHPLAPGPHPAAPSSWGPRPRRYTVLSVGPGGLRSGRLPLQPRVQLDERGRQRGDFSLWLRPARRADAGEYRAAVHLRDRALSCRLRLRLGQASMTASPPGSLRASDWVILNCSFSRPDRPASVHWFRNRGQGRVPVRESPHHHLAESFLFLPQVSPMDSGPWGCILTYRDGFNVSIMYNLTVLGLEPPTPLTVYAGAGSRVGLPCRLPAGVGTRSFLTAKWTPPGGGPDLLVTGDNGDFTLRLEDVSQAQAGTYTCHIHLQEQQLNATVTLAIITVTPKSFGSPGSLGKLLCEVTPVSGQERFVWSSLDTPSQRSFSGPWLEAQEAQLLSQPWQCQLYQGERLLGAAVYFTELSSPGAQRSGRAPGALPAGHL", "assay": "LAG3/FGL1 binding assay (HTRF, Cisbio kit)", "settings": "not given", "values": [{"compound": "CC(=O)OC1C=CC(C)C(=O)C(C)CC=CC2C=C(C)C(C)C3C(Cc4ccccc4)NC(=O)C213", "note": "(stereo not shown) [Compound 1, xylariasin A]", "pIC50": 4.93}, {"compound": "C=C1C(C)C2C(Cc3ccccc3)NC(=O)C23C(OC(C)=O)C=CC(C)C(=O)C(C)CC=CC3C1O", "note": "(stereo not shown) [Compound 7, zygosporin E]", "pIC50": 5.36}, {"compound": "CC(=O)OC1C=CC(C)(O)C(=O)C(C)CC=CC2C(=O)C(C)C(C)C3C(Cc4ccccc4)NC(=O)C123", "note": "(stereo not shown) [Compound 8]", "pIC50": 5.13}]}, {"target": "T1, LAG3/FGL1", "assay": "LAG3/FGL1 binding assay (HTRF, Cisbio kit)", "settings": "read-out: inhibition rate against LAG3/FGL1", "units": {"inhibition at 50 µM": "%"}, "values": [{"compound": "CC(=O)OC1C=CC(C)C(=O)C(C)CC=CC2C=C(C)C(C)C3C(Cc4ccccc4)NC(=O)C213", "note": "(stereo not shown) [Compound 1, xylariasin A]", "inhibition at 50 µM": 83.9}, {"compound": "CC(=O)OC1C=CC(C)(O)C(=O)C(C)CC=CC2C=C(C)C(C)C3C(Cc4ccccc4)NC(=O)C213", "note": "(stereo not shown) [Compound 4, zygosporin G]", "inhibition at 50 µM": 24.9}, {"compound": "CC(=O)OC1C=CC(C)(O)C(=O)C(C)CC=CC2C=C(CO)C(C)C3C(Cc4ccccc4)NC(=O)C213", "note": "(stereo not shown) [Compound 5, 12-hydroxyl zygosporin G]", "inhibition at 50 µM": 79.1}, {"compound": "C=C1[C@@H](C)[C@H]2[C@H](Cc3ccccc3)NC(=O)[C@]23[C@H](OC(C)=O)/C=C/[C@@](C)(O)C(=O)[C@@H](C)C/C=C/[C@H]3[C@@H]1O", "note": "[Compound 6, cytochalasin D]", "inhibition at 50 µM": 2.66}, {"compound": "C=C1C(C)C2C(Cc3ccccc3)NC(=O)C23C(OC(C)=O)C=CC(C)C(=O)C(C)CC=CC3C1O", "note": "(stereo not shown) [Compound 7, zygosporin E]", "inhibition at 50 µM": 92.7}, {"compound": "CC(=O)OC1C=CC(C)(O)C(=O)C(C)CC=CC2C(=O)C(C)C(C)C3C(Cc4ccccc4)NC(=O)C123", "note": "(stereo not shown) [Compound 8]", "inhibition at 50 µM": 92.5}, {"compound": "CC(=O)OC1C=CC(C)(O)C(=O)C(C)CC=CC2C(O)C(C)=C(C)C3C(Cc4ccccc4)NC(=O)C123", "note": "(stereo not shown) [Compound 9, cytochalasin C]", "inhibition at 50 µM": 58.4}]}, {"target": "T2, LAG3/MHC II (Homo sapiens, UniProt P18627)", "T2 sequence (P18627 23-450 limits assumed)": "T1 sequence (P18627 23-450 limits assumed)", "assay": "LAG3/MHC II binding assay (HTRF, Cisbio kit)", "settings": "not given", "values": [{"compound": "CC(=O)OC1C=CC(C)C(=O)C(C)CC=CC2C=C(C)C(C)C3C(Cc4ccccc4)NC(=O)C213", "note": "(stereo not shown) [Compound 1, xylariasin A]", "pIC50": 5.32}, {"compound": "CC(=O)OC1C=CC(C)(O)C(=O)C(C)CC=CC2C=C(CO)C(C)C3C(Cc4ccccc4)NC(=O)C213", "note": "(stereo not shown) [Compound 5, 12-hydroxyl zygosporin G]", "pIC50": 5.50}, {"compound": "C=C1C(C)C2C(Cc3ccccc3)NC(=O)C23C(OC(C)=O)C=CC(C)C(=O)C(C)CC=CC3C1O", "note": "(stereo not shown) [Compound 7, zygosporin E]", "pIC50": 5.63}, {"compound": "CC(=O)OC1C=CC(C)(O)C(=O)C(C)CC=CC2C(=O)C(C)C(C)C3C(Cc4ccccc4)NC(=O)C123", "note": "(stereo not shown) [Compound 8]", "pIC50": 5.59}]}, {"target": "T2, LAG3/MHC II", "assay": "LAG3/MHC II binding assay (HTRF, Cisbio kit)", "settings": "read-out: inhibition rate against LAG3/MHC II", "units": {"inhibition at 50 µM": "%"}, "values": [{"compound": "CC(=O)OC1C=CC(C)C(=O)C(C)CC=CC2C=C(C)C(C)C3C(Cc4ccccc4)NC(=O)C213", "note": "(stereo not shown) [Compound 1, xylariasin A]", "inhibition at 50 µM": 82.4}, {"compound": "CC(=O)OC1C=CC(C)(O)C(=O)C(C)CC=CC2C=C(C)C(C)C3C(Cc4ccccc4)NC(=O)C213", "note": "(stereo not shown) [Compound 4, zygosporin G]", "inhibition at 50 µM": 55.7}, {"compound": "CC(=O)OC1C=CC(C)(O)C(=O)C(C)CC=CC2C=C(CO)C(C)C3C(Cc4ccccc4)NC(=O)C213", "note": "(stereo not shown) [Compound 5, 12-hydroxyl zygosporin G]", "inhibition at 50 µM": 85.3}, {"compound": "C=C1C(C)C2C(Cc3ccccc3)NC(=O)C23C(OC(C)=O)C=CC(C)C(=O)C(C)CC=CC3C1O", "note": "(stereo not shown) [Compound 7, zygosporin E]", "inhibition at 50 µM": 82.7}, {"compound": "CC(=O)OC1C=CC(C)(O)C(=O)C(C)CC=CC2C(=O)C(C)C(C)C3C(Cc4ccccc4)NC(=O)C123", "note": "(stereo not shown) [Compound 8]", "inhibition at 50 µM": 78.9}, {"compound": "CC(=O)OC1C=CC(C)(O)C(=O)C(C)CC=CC2C(O)C(C)=C(C)C3C(Cc4ccccc4)NC(=O)C123", "note": "(stereo not shown) [Compound 9, cytochalasin C]", "inhibition at 50 µM": 77.4}]}]}
